# What was measured:
# Format in all cases: cell-based, human
# plated stage 4 cells = test: qRT-PCR and immunostaining of plated stage 4 cells treated with cytoskeletal modifying compounds
# Excerpt: For experiments investigating the effects of plating pancreatic progenitors, cells were differentiated with the suspension protocol for stages 1-3. At the end of stage 3, clusters were single cell dispersed with TrypLE and plated onto tissue culture plates coated with various ECM proteins at 0.625×10^6 cells/cm^2. Differentiation media for the remainder of this hybrid protocol were the same as for the suspension protocol with the exception that Y-27632 and Activin A were omitted on days 2-5 of stage 4. Additional compounds were added as indicated in each experiment: 1 μM latrunculin A (Cayman Chemical, 10010630), 1 μM latrunculin B (Cayman Chemical, 10010631), 1 μM cytochalasin D (MilliporeSigma, C2618), 1 μM jasplakinolide (Cayman Chemical, 11705), 10 μM blebbistatin (MilliporeSigma, 203389), 1 μM nocodazole (Cayman Chemical, 13857), 1 μM Y-15 (Cayman Chemical, 14485), 10 μM Y-27632, and 10 μM GDC-0994 (Selleckchem, S7554). A variety of ECM coatings were initially tested with this plating methodology, including collagen I (Corning, 354249), collagen IV (Corning, 354245), fibronectin (Gibco, 33016-015), vitronectin (Gibco, A14700), matrigel (Corning, 356230), gelatin (Fisher, G7-500), and laminins 111, 121, 211, 221, 411, 421, 511, and 521 (Biolamina, LNKT-0201). All subsequent experiments with this hybrid protocol were performed on collagen I.
# (§1) Brightfield images were taken with a Leica DMi1 inverted light microscope, and fluorescence images were captured with a Nikon A1Rsi confocal microscope. For immunostaining, cells were fixed with 4% paraformaldehyde (PFA) at room temperature for 30 minutes. They were then blocked and permeabilized for 45 minutes at room temperature with an immunocytochemistry (ICC) solution consisting of 0.1% triton X (Acros Organics, 327371000) and 5% donkey serum (Jackson Immunoresearch, 017000-121) in PBS (Corning, 21-040-CV). Samples were then incubated with primary antibodies diluted in ICC solution overnight at 4° C., washed with ICC, incubated with secondary antibodies diluted in ICC for 2 hours at room temperature, and stained with DAPI for 15 minutes at room temperature. For histological sectioning, whole SC-β cell clusters generated with the planar protocol and mouse kidneys containing transplanted cells were fixed overnight with 4% PFA at 4° C. The in vitro clusters were also embedded in Histogel (Thermo Scientific, hg-4000-012). These samples were then paraffin-embedded and sectioned by the Division of Comparative Medicine (DCM) Research Animal Diagnostic Laboratory Core at Washington University in St. Louis. Paraffin was removed from sectioned samples with Histoclear (Thermo Scientific, C78-2-G), and antigen retrieval was carried out in a pressure cooker (Proteogenix, 2100 Retriever) with 0.05 M EDTA (Ambion, AM9261). Slides were blocked and permeabilized with ICC solution for 45 minutes, incubated with primary antibodies in ICC solution overnight at 4° C., and incubated with secondary antibodies for 2 hours at room temperature. Slides were then sealed with DAPI Fluoromount-G (SouthernBiotech, 0100-20).
# RNA was extracted from either whole clusters or cells directly on the plate with the RNeasy Mini Kit (Qiagen, 74016). Samples were treated with a DNAse kit (Qiagen, 79254) during extraction. The High Capacity cDNA Reverse Transcriptase Kit (Applied Biosystems, 4368814) was used to synthesize cDNA on a thermocycler (Applied Biosystems, A37028). The PowerUp SYBR Green Master Mix (Applied Biosystems, A25741) was used on a StepOnePlus (Applied Biosystems), and real time PCR results were analyzed using a ΔΔCt methodology. TBP and GUSB were both used as housekeeping genes. Primer sequences were as follows.
# [1] = test system: plated pancreatic progenitors; test: Single-cell RNA sequencing of plated pancreatic progenitors treated throughout stage 4; conditions: 0.5 μM latrunculin A throughout stage 4
# Protocol: Cells generated with the suspension protocol were single-cell dispersed with TrypLE from clusters at the end of stage 3 and seeded onto collagen 1 coated 24-well plates at 0.625×10^6 cells/cm^2. Either 0.5 μM latrunculin A or 5 μM nocodazole were added throughout the entirety of stage 4. At the end of stage 4, cells were single-cell dispersed, suspended in DMEM, and submitted to the Washington University Genome Technology Access Center. Library preparation was done using the Chromium Single Cell 3′ Library and Gel Bead Kit v2 (10× Genomics, 120237). Briefly, single cells were isolated in emulsions using a microfluidic platform, and each single cell emulsion was barcoded with a unique set of oligonucleotides. The GemCode Platform was used to carry out reverse transcription within each single cell emulsion, which was amplified to construct a library. The libraries were sequenced with paired-end reads of 26×98 primerbp using the Illumina HiSeq2500.
# Seurat v2.0 was used to perform single cell RNA analyses. Duplicate cells and cells with high mitochondrial gene expression were filtered out using FilterCells (>9000 total genes and >5% mitochondrial genes for Untreated Control, >6000 genes and >6% mitochondrial genes for latrunculin A, >12000 genes and >4% mitochondrial genes for nocodazole). Each data set was normalized using global-scaling normalization. FindVariableGenes identified and removed outlier genes using scaled z-score dispersion. The datasets were then combined and a canonical correlation analysis (CCA) was performed with RunMultiCCA. AlignSubspace was used to align the CCA subspaces and generated a new dimension reduction for integrated analysis. Unsupervised TSNE plots were generated using RunTSNE, and the resulting clusters were defined and labeled using FindMarkers. VInPlot (Violin plots) and FeaturePlot (tsne plots) were used to visualize differences in gene expressions across each cluster and conditions.
# F-actin = F-actin staining and G/F actin ratio by western blot; conditions: 1 μM for 24 hours, plated stage 4 cells
# Protocol: as §1
# G/F actin ratio was determined by western blot following the instructions of the G-actin/F-actin In Vivo Assay Kit (Cytoskeleton, Inc, BK037). Western blot was visualized using SuperSignal West Pico PLUS Chemiluminescent substrate (ThermoScientific, 34577) and the Odyssey FC (LI-COR) imager.
compound,measurement,setting,value
C/C1=C/C(=O)O[C@@H]2C[C@@H](CC[C@H](C)/C=C\C=C\CC1)O[C@@](O)([C@@H]1CSC(=O)N1)C2 [latrunculin A],NEUROG3+ and NKX6-1+ cells by immunostaining,"plated stage 4 cells; 1 μM, plated cells at the end of stage 4",increases NEUROG3+ and decreases NKX6-1+ cells
same,dose response of NEUROG3 expression,"plated stage 4 cells; added during stage 4, qRT-PCR",highly dose-dependent
same,expression of NEUROG3 and downstream targets NKX2.2 and NEUROD1,"plated stage 4 cells; compound screen, plated stage 4 cells, qRT-PCR",greatly increased expression of NEUROG3
same,NKX6-1 expression,plated stage 4 cells; latrunculin treatment during stage 4,followed the reverse trend as NEUROG3
same,percentage of cells in the NKX6-1+ population (pancreatic progenitor 2),[1],2.5%
same,percentage of cells with endocrine induction,[1],44.7%
same,F-actin polymerization state,F-actin,almost complete depolymerization of F-actin
same,G/F-actin ratio,F-actin,increased G/F-actin ratio
same,PDX1 expression by immunostaining,F-actin,maintenance of PDX1 expression

# — patent publication US20210207099A1, “METHODS AND COMPOSITIONS FOR GENERATING CELLS OF ENDODERMAL LINEAGE AND BETA CELLS AND USES THEREOF” (priority 2018, published 2021)
